pIC50, pKd: −log10 of the molar value.
Experiments:
FLT3 kinase = molecular target: T1, FLT3 kinase (Homo sapiens, UniProt P36888); test: Competition binding assay, FLT3 Kd
T1 construct: made in house; host or cells: T7 phage display or HEK-293 cells
T1 sequence (P36888 27-993): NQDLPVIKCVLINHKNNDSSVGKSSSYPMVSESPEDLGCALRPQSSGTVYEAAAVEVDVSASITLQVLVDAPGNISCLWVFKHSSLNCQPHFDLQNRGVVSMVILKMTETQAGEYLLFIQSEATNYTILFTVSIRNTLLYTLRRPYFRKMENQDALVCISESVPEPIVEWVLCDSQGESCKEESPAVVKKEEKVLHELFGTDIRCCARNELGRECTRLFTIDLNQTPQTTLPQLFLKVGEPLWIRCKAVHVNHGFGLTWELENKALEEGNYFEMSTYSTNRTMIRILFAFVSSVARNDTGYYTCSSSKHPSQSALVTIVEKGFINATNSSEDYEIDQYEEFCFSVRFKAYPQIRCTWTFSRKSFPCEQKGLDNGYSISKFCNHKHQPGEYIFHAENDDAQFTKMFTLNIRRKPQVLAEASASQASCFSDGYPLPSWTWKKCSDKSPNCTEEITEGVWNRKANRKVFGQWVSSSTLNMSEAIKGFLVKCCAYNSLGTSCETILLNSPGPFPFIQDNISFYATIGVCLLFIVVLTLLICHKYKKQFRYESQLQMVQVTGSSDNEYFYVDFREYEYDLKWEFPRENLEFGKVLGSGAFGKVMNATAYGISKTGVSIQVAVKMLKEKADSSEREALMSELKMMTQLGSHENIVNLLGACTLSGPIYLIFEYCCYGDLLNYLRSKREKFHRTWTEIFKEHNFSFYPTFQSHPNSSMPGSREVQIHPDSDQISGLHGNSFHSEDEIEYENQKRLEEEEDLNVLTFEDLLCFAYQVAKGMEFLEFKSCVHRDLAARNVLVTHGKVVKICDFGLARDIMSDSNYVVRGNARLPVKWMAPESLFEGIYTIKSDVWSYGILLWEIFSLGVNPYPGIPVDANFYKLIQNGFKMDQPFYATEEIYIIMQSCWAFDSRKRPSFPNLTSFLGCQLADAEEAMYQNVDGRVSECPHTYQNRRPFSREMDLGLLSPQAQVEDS
In short: (§1)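 In this bead-based competition format, test compound (eleven concentrations, threefold steps) was incubated with kinase and immobilized affinity ligand for 1 hour at room temperature. Kinase retained on beads was released with non-biotinylated ligand and measured by quantitative PCR to give Kd.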

KIT kinase = molecular target: T2, KIT kinase (Homo sapiens, UniProt P10721); test: Competition binding assay, KIT Kd
T2 construct: made in house; host or cells: T7 phage display or HEK-293 cells
T2 sequence (P10721 26-976): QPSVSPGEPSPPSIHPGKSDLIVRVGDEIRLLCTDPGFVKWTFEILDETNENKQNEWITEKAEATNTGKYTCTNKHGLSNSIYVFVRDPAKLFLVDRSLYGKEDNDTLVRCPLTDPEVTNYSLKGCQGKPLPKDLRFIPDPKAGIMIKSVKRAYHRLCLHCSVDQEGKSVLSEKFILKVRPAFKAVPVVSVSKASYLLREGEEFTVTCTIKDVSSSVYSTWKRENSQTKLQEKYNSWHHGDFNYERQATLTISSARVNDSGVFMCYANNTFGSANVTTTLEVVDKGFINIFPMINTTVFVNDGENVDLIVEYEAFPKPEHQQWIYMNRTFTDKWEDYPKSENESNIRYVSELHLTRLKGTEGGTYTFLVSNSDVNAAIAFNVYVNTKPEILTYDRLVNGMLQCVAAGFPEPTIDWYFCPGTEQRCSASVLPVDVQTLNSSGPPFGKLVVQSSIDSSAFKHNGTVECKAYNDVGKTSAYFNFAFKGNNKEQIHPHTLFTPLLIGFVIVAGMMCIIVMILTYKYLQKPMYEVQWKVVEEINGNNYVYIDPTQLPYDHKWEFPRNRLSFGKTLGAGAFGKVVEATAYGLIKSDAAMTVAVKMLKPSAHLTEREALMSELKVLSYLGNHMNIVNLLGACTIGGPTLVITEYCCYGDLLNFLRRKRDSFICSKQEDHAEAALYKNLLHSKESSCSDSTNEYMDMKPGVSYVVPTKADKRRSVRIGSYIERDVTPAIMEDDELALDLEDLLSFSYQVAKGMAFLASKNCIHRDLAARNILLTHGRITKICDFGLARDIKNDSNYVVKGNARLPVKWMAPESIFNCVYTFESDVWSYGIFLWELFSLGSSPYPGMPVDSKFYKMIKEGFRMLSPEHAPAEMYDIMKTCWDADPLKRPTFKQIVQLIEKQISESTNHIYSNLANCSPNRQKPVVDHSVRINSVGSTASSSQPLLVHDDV
In short: as §1

CSF-1R kinase = molecular target: T3, CSF-1R kinase (Homo sapiens, UniProt P07333); test: Competition binding assay, CSF-1R Kd
T3 construct: made in house; host or cells: T7 phage display or HEK-293 cells
T3 sequence (P07333 20-972): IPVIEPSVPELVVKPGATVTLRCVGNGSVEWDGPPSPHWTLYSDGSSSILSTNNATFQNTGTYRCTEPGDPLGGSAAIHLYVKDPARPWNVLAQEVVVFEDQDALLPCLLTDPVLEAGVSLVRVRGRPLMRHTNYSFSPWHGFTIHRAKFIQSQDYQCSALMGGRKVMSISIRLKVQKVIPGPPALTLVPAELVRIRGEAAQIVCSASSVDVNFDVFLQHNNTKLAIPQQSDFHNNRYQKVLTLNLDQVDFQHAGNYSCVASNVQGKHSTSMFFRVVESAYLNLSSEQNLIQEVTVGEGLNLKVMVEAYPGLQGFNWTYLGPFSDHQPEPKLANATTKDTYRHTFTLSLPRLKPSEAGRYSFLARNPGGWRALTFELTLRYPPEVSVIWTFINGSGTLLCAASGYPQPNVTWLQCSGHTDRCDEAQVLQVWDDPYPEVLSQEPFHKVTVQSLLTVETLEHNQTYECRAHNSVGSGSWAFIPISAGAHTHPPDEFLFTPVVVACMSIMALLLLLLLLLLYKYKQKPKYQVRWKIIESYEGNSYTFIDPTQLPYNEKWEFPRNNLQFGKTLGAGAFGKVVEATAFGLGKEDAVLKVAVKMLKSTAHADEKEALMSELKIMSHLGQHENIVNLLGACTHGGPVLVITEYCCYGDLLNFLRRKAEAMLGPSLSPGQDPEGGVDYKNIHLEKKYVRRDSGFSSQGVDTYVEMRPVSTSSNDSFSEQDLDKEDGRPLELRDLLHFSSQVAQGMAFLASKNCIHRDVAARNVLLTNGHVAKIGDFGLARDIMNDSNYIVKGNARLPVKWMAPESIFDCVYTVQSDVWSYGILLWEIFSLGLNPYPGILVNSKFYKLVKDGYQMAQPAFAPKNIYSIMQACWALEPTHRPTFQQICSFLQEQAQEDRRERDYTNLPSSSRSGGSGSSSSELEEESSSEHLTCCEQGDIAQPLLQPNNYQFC
In short: as §1

MV4-11 cells = test: MV4-11 cell proliferation assay (Alamar Blue); type: cell-based; conditions: Homo sapiens, MV4-11, 72 h, 3 days incubation
In short: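 Flt3-ITD MV4-11 cells were serum-starved overnight in Iscove's with 0.5% FBS, then given compound at 9 half-log concentrations (0.5% DMSO) for 3 days at 37° C. Alamar Blue reduction was read after 3 h by fluorescence (560/590 nm). IC50 is the mean of duplicates versus negative control.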

[1] = molecular target: kinase panel containing either 359 or 386 distinct kinases; test: Selectivity score S10 from competition binding against a panel of kinases; conditions: compounds at 10 μM; panel of 386 distinct kinases
In short: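 Compounds were tested at 10 μM in competition binding against T7 phage-fused or HEK-293-expressed DNA-tagged kinases with immobilized affinity ligands, 1 h at room temperature. Bound kinase was quantified by qPCR as percent of DMSO control; S10 is the fraction of distinct kinases (mutants excluded) with POC below 10.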

Structure (SMILES)	pKd (FLT3 kinase)	pKd (KIT kinase)	pKd (CSF-1R kinase)	pIC50 (MV4-11 cells)	Kinase specificty: S(10)-386 panel [1]
CC1(c2cc(NC(=O)Nc3ccc(-c4ccc(N)nc4)cn3)no2)CC1.CS(=O)(=O)O [Example 104, 6′-(3-(5-(1-methylcyclopropyl)isoxazol-3-yl)ureido)-3,3′-bipyridin-6-aminium methanesulfonate]	≥ 9.00	≥ 9.00	≥ 8.00	7.00 to 8.00	A (A≦0.1)
CC(C)(C)c1cc(NC(=O)Cc2ccc(-c3ccc(NCCN4CCOCC4)nc3)cc2)no1.CS(=O)(=O)O [Example 105, 5-(4-(2-(5-tert-butylisoxazol-3-ylamino)-2-oxoethyl)phenyl)-N-(2-morpholinoethyl)pyridin-2-aminium methanesulfonate]	≥ 9.00	≥ 9.00	≥ 8.00	8.00 to 9.00	B (0.1<B≦0.2 nM)
CC1(c2cc(NC(=O)Nc3ccc(-c4ccc(N)nc4)cc3)no2)CC1.CS(=O)(=O)O [Example 106, 5-(4-(3-(5-(1-methylcyclopropyl)isoxazol-3-yl)ureido)phenyl)pyridin-2-aminium methanesulfonate]	≥ 9.00	≥ 9.00	≥ 8.00	8.00 to 9.00	A (A≦0.1)
CC(C)(C)c1cc(NC(=O)Nc2ccc(-c3ccc(NCCN4CCC(F)(F)CC4)nc3)cc2)no1.CS(=O)(=O)O [Example 107, 1-(2-((5-(4-(3-(5-(tert-butyl)isoxazol-3-yl)ureido)phenyl)pyridin-2-yl)amino)ethyl)-4,4-difluoropiperidin-1-ium methanesulfonate]	≥ 9.00	8.00 to 9.00	≥ 8.00	8.00 to 9.00	A (A≦0.1)
CC(C)(C)c1cc(NC(=O)Cc2ccc(-c3ccc(NCCN4CCC(F)(F)CC4)nc3)cc2)no1.CS(=O)(=O)O [Example 108, 1-(2-(5-(4-(2-(5-tert-butylisoxazol-3-ylamino)-2-oxoethyl)phenyl)pyridin-2-ylamino)ethyl)-4,4-difluoropiperidinium methanesulfonate]	≥ 9.00	8.00 to 9.00	≥ 8.00	8.00 to 9.00	A (A≦0.1)
CC(C)(c1cc(NC(=O)Cc2ccc(-c3ccc(NCCN4CCOCC4)nc3)cc2)no1)C(F)(F)F.CS(=O)(=O)O [Example 109, 4-(2-(5-(4-(2-oxo-2-(5-(1,1,1-trifluoro-2-methylpropan-2-yl)isoxazol-3-ylamino)ethyl)phenyl)pyridin-2-ylamino)ethyl)morpholin-4-ium methanesulfonate]	≥ 9.00	8.00 to 9.00	≥ 8.00	≥ 9.00	B (0.1<B≦0.2 nM)
CNc1ccc(-c2ccc(CC(=O)Nc3cc(C(C)(C)C)on3)cc2)cn1.CS(=O)(=O)O [Example 110, 5-(4-(2-(5-tert-butylisoxazol-3-ylamino)-2-oxoethyl)phenyl)-N-methylpyridin-2-aminium methanesulfonate]	≥ 9.00	8.00 to 9.00	≥ 8.00	≥ 9.00	B (0.1<B≦0.2 nM)
CCNc1ccc(-c2ccc(CC(=O)Nc3cc(C(C)(C)C)on3)cc2)cn1.CS(=O)(=O)O [Example 111, 5-(4-(2-(5-tert-butylisoxazol-3-ylamino)-2-oxoethyl)phenyl)-N-ethylpyridin-2-aminium methanesulfonate]	≥ 9.00	≥ 9.00	≥ 8.00	≥ 9.00	A (A≦0.1)
CC1(c2cc(NC(=O)Nc3ccc(-c4ccc(N)nc4)cc3)no2)CC1(F)F.CS(=O)(=O)O (stereo not shown) [Example 112, 5-(4-(3-(5-(2,2-difluoro-1-methylcyclopropyl)isoxazol-3-yl)ureido)phenyl)pyridin-2-aminium methanesulfonate]	≥ 9.00	8.00 to 9.00	≥ 8.00	8.00 to 9.00	A (A≦0.1)
CS(=O)(=O)O.Cc1nc(-c2ccc(CC(=O)Nc3cc(C(C)(C)C)on3)cc2)cnc1N [Example 113, 5-(4-(2-(5-tert-butylisoxazol-3-ylamino)-2-oxoethyl)phenyl)-3-methylpyrazin-2-aminium methanesulfonate]	≥ 9.00	8.00 to 9.00	≥ 8.00	≥ 9.00	B (0.1<B≦0.2 nM)
CC(C)(C)c1cc(NC(=O)Cc2ccc(-c3cnc(N)c(Cl)c3)cc2)no1.CS(=O)(=O)O [Example 115, 5-(4-(2-(5-tert-butylisoxazol-3-ylamino)-2-oxoethyl)phenyl)-3-chloropyridin-2-aminium methanesulfonate]	8.00 to 9.00	8.00 to 9.00	≥ 8.00	≥ 9.00	B (0.1<B≦0.2 nM)
CC(C)(C)c1cc(NC(=O)Cc2ccc(-c3cnc(N)c(C(F)(F)F)c3)cc2)no1.CS(=O)(=O)O [Example 116, 5-(4-(2-(5-tert-butylisoxazol-3-ylamino)-2-oxoethyl)phenyl)-3-(trifluoromethyl)pyridin-2-aminium methanesulfonate]	≥ 9.00	8.00 to 9.00	≥ 8.00	≥ 9.00	B (0.1<B≦0.2 nM)
CN1C(C)(C)CC(=CCNc2ccc(-c3ccc(CC(=O)Nc4cc(C(C)(C)C)on4)cc3)cn2)CC1(C)C [Example 117, N-(5-tert-butylisoxazol-3-yl)-2-(4-(6-(2-(1,2,2,6,6-pentamethylpiperidin-4-ylidene)ethylamino)pyridin-3-yl)phenyl)acetamide]	≥ 9.00	8.00 to 9.00	≥ 8.00	≥ 9.00	B (0.1<B≦0.2 nM)
CC(C)(F)c1cc(NC(=O)Cc2ccc(-c3ccc(NCCN4CCOCC4)nc3)cc2)on1 [Example 118, N-(3-(2-fluoropropan-2-yl)isoxazol-5-yl)-2-(4-(6-(2-morpholinoethylamino)pyridin-3-yl)phenyl)acetamide]	≥ 9.00	≥ 9.00	≥ 8.00	7.00 to 8.00	A (A≦0.1)
CC(C)(C)c1cc(NC(=O)Cc2ccc(-c3ccc(N)nc3F)cc2)on1.CS(=O)(=O)O [Example 119, 5-(4-(2-(3-tert-butylisoxazol-5-ylamino)-2-oxoethyl)phenyl)-6-fluoropyridin-2-aminium methanesulfonate]	≥ 9.00	8.00 to 9.00	≥ 8.00	≥ 9.00	A (A≦0.1)
CS(=O)(=O)O.Nc1ccc(-c2ccc(NC(=O)Nc3cc(C4(C(F)(F)F)CCC4)on3)cc2)cn1 [Example 121, 5-(4-(3-(5-(1-(trifluoromethyl)cyclobutyl)isoxazol-3-yl)ureido)phenyl)pyridin-2-aminium methanesulfonate]	8.00 to 9.00	8.00 to 9.00	7.00 to 8.00	≥ 9.00	A (A≦0.1)
CC1(CCNc2ccc(-c3ccc(CC(=O)Nc4cc(C(C)(C)C)on4)cc3)cn2)COC1 [Example 122, N-(5-tert-butylisoxazol-3-yl)-2-(4-(6-(2-(3-methyloxetan-3-yl)ethylamino)pyridin-3-yl)phenyl)acetamide]	8.00 to 9.00	7.00 to 8.00	6.30 to 7.00	7.00 to 8.00	A (A≦0.1)
